Test results published in US7582667B2, “Dihydrospiro[dibenzo[a,d][7]annulene-5,4′-imidazol] compounds for the inhibition of beta-secretase” (Wyeth, priority 2006, dated 2009).

What was measured:
[1] = biological target: human BACE1 (Homo sapiens, UniProt P56817); test: Fluorescent kinetic assay, BACE-1 binding affinity (peptide substrate WABC-6 cleavage); assay type: biochemical; conditions: 10 nM enzyme, 25 μM substrate WABC-6, Na-Acetate pH 4.5, room temperature
Method: Evaluation of BACE-1 Binding Affinity of Test Compounds
Fluorescent Kinetic Assay
Final Assay Conditions: 10 nM human BACE1 (or 10 nM Murine BACE1), 25 μM substrate (WABC-6, MW 1549.6, from AnaSpec), Buffer: 50 mM Na-Acetate, pH 4.5, 0.05% CHAPS, 25% PBS, room temperature. Na-Acetate was from Aldrich, Cat. #24, 124-5, CHAPS was from Research Organics, Cat. #1304C 1X, PBS was from Mediatech (Cellgro), Cat#21-031-CV, peptide substrate Abz[…]pa was from AnaSpec, Peptide Name: WABC-6 Determination of stock substrate (Abz[…]pa) concentration: ˜25 mM stock solution is made in DMSO using the peptide weight and MW, and diluted to ˜25 μM (1:1000) in 1×PBS. Concentration is determined by absorbance at 354 nm using an extinction coefficient ε of 18172 M^−1cm^−1, the concentration of stock substrate is corrected, and the substrate stock stored in small aliquots in −80° C. […] Determination of Stock Enzyme Concentration: the stock concentration of each enzyme is determined by absorbance at 280 nm using ε of 64150 M^−1cm^−1 for hBACE1 and MuBACE1 in 6 M Guanidinium Hydrochloride (from Research Organics, Cat. # 5134G-2), pH ˜6. The extinction coefficient ε^280 nm for each enzyme was calculated based on known amino acid composition and published extinction coefficients for Trp ([…]) and Tyr ([…]) residues (Anal. Biochem. 182, 319-326). Dilution and mixing steps: total reaction volume: 100 μL
2× inhibitor dilutions in buffer A (66.7 mM Na-Acetate, pH 4.5, 0.0667% CHAPS) were prepared,
4× enzyme dilution in buffer A (66.7 mM Na-Acetate, pH 4.5, 0.0667% CHAPS) were prepared,
100 μM substrate dilution in 1× PBS was prepared, and
50 μL 2× Inhibitor, 25 μL 100 μM substrate are added to each well of 96-well plate (from DYNEX Technologies, VWR #: 11311-046), immediately followed by 25 μL 4× enzyme (added to the inhibitor and substrate mix), and the fluorescence readings are initiated.
Fluorescence Readings: Readings at λex 320 nm and λem 420 nm are taken every 40 sec for 30 min at room temperature and the linear slope for substrate cleavage rate (vi) determined.
Calculation of % Inhibition: % Inhibition=100*(1−vi/v0) • vi: substrate cleavage rate in the presence of inhibitor • v0: substrate cleavage rate in the absence of inhibitor • IC50 Determination: % Inhibition=((B*IC50^n)+(100*I0^n))/(IC50^n+I0^n) (Model #39 from LSW Tool Bar in Excel where B is the % inhibition from the enzyme control, which should be close to 0.) % Inhibition is plotted vs. Inhibitor Concentration (I0) and the data fit to the above equation to obtain IC50 value and Hill number (n) for each compound.

human BACE1, sequence (P56817 46-501): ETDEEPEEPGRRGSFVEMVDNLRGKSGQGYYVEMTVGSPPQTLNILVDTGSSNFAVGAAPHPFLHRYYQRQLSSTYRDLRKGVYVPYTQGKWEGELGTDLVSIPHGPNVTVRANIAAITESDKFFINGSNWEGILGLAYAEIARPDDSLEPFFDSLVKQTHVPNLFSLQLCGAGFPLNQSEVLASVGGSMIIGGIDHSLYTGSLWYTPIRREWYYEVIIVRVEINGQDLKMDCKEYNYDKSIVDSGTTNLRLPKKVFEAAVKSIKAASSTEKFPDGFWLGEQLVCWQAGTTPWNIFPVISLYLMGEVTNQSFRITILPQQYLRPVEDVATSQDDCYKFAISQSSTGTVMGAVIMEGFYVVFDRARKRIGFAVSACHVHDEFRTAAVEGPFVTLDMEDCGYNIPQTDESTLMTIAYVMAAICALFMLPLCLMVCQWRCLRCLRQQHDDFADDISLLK

Compound | IC50 [1] [µM] | melting point [°C]
COc1ccc2c(c1)CCc1ccc(-c3ccccc3)cc1C21N=C(N)N(C)C1=O (stereo not shown) [Example 12, 2′-Amino-2-methoxy-1′-methyl-7-phenyl-10,11-dihydrospiro[dibenzo[a,d][7]annulene-5,4′-imidazol]-5′(1′H)-one] | 0.18 | 
COc1ccc2c(c1C)CCc1ccc(-c3cccnc3F)cc1C21N=C(N)N(C)C1=O (stereo not shown) [Example 4, 2′-amino-7-(2-fluoropyridin-3-yl)-2-methoxy-1,1′-dimethyl-10,11-dihydrospiro[dibenzo[a,d][7]annulene-5,4′-imidazol]-5′(1′H)-one] | 0.063 | 153 to 155
2′-amino-7-(6-fluoropyridin-3-yl)-2-methoxy-1,1′-dimethyl-10,11-dihydrospiro[dibenzo[a,d][7]annulene-5,4′-imidazol]-5′(1′H)-one [Example 6] | 0.108 | 
COc1ccc2c(c1C)CCc1ccc(-c3cc(F)cc(F)c3)cc1C21N=C(N)N(C)C1=O (stereo not shown) [Example 10, 2′-amino-7-(3,5-difluorophenyl)-2-methoxy-1,1′-dimethyl-10,11-dihydrospiro[dibenzo[a,d][7]annulene-5,4′-imidazol]-5′(1′H)-one] | 0.376 | 245 to 249
COc1cccc(-c2ccc3c(c2)C2(N=C(N)N(C)C2=O)c2ccc(OC)c(C)c2CC3)c1 (stereo not shown) [Example 9, 2′-amino-2-methoxy-7-(3-methoxyphenyl)-1,1′-dimethyl-10,11-dihydrospiro[dibenzo[a,d][7]annulene-5,4′-imidazol]-5′(1′H)-one] | 0.138 | 
COc1ccc2c(c1C)CCc1ccc(-c3cccc(C#N)c3)cc1C21N=C(N)N(C)C1=O (stereo not shown) [Example 8, 3-(2′-amino-8-methoxy-1′,9-dimethyl-5′-oxo-1′,5′, 10,11-tetrahydrospiro[dibenzo[a,d][7]annulene-5,4′-imidazol]-3-yl)benzonitrile] | 0.235 | 269 to 280
COc1ccc2c(c1C)CCc1ccc(-c3cccnc3)cc1C21N=C(N)N(C)C1=O (stereo not shown) [Example 3, 2′-Amino-2-methoxy-1,1′-dimethyl-7-pyridin-3-yl-10,11-dihydrospiro[dibenzo[a,d][7]annulene-5,4′-imidazol]-5′(1′H)-one] | 0.077 | 235 to 239
COc1ccc2c(c1C)CCc1ccc(-c3cc(F)ccc3F)cc1C21N=C(N)N(C)C1=O (stereo not shown) [Example 7, 2′-amino-7-(2,5-difluorophenyl)-2-methoxy-1,1′-dimethyl-10,11-dihydrospiro[dibenzo[a,d][7]annulene-5,4′-imidazol]-5′(1′H)-one] | 0.25 | 155 to 195
